# Data as given in PubChem BioAssay AID2060610 (Molecular Pharmacology Branch, DTP, NCI, 2025).
# Several values for one entry are separate records, joined by “and”; a condition that tells them apart may be missing. Equal entries are not always repeated.
# Tested on: 616215-338-R-J1-PDC complex spheroids, viability % test/control
# Test: Anticancer human tumor 616215-338-R-J1-PDC patient-derived colon adenocarcinoma cell line growth inhibition [CLK]
# Conditions: for viability, T/C: stronger effect = lower value
# Method in brief: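 Multi-cell-type spheroids combined patient-derived tumor cells with HUVEC endothelial cells and human mesenchymal stem cells. Paired agents were dosed in half-log steps down from about clinical Cmax, or from 10 microM where Cmax was unknown.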
# 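Also: spheroids exposed to agents for 7 days.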
# 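For viability, T/C in this document: 100% = DMSO vehicle wells.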
structure (smiles),measurement,setting,value
Cn1ncnc1[C@H]1c2n[nH]c(=O)c3cc(F)cc(c23)N[C@@H]1c1ccc(F)cc1 + CN1CCN(c2cc(C(=O)Nc3cc4cc(-c5cnn(C)c5)ccc4cn3)ccn2)CC1,IC50,"curve of first compound, second compound 0.0316 µM",> 100 nM
same,IC50,"curve of first compound, second compound 0.1 µM",> 100 nM
same,IC50,"curve of first compound, second compound 0.316 µM",< 0.316 nM
same,IC50,"curve of first compound, second compound 1 µM",< 0.316 nM
same,IC50,"curve of first compound, second compound 3.16 µM",< 0.316 nM
same,IC50,"curve of first compound, second compound 10 µM",< 0.316 nM
same,"viability, T/C","second compound 0.0316 µM, first compound 0.000316 µM",113%
same,"viability, T/C","second compound 0.0316 µM, first compound 0.001 µM",96.3%
same,"viability, T/C","second compound 0.0316 µM, first compound 0.00316 µM",99.7%
same,"viability, T/C","second compound 0.0316 µM, first compound 0.01 µM",122%
same,"viability, T/C","second compound 0.0316 µM, first compound 0.0316 µM",98.3%
same,"viability, T/C","second compound 0.0316 µM, first compound 0.1 µM",112%
same,"viability, T/C","second compound 0.1 µM, first compound 0.000316 µM",119%
same,"viability, T/C","second compound 0.1 µM, first compound 0.001 µM",106%
same,"viability, T/C","second compound 0.1 µM, first compound 0.00316 µM",102%
same,"viability, T/C","second compound 0.1 µM, first compound 0.01 µM",105%
same,"viability, T/C","second compound 0.1 µM, first compound 0.0316 µM",101%
same,"viability, T/C","second compound 0.1 µM, first compound 0.1 µM",69.5%
same,"viability, T/C","second compound 0.316 µM, first compound 0.000316 µM",29.3%
same,"viability, T/C","second compound 0.316 µM, first compound 0.001 µM",35.2%
same,"viability, T/C","second compound 0.316 µM, first compound 0.00316 µM",39.2%
same,"viability, T/C","second compound 0.316 µM, first compound 0.01 µM",38.7%
same,"viability, T/C","second compound 0.316 µM, first compound 0.0316 µM",36.5%
same,"viability, T/C","second compound 0.316 µM, first compound 0.1 µM",32%
same,"viability, T/C","second compound 1 µM, first compound 0.000316 µM",0.12%
same,"viability, T/C","second compound 1 µM, first compound 0.001 µM",0.14%
same,"viability, T/C","second compound 1 µM, first compound 0.00316 µM",1.57%
same,"viability, T/C","second compound 1 µM, first compound 0.01 µM",0.1%
same,"viability, T/C","second compound 1 µM, first compound 0.0316 µM",1.12%
same,"viability, T/C","second compound 1 µM, first compound 0.1 µM",4.26%
same,"viability, T/C","second compound 3.16 µM, first compound 0.000316 µM",0.1%
same,"viability, T/C","second compound 3.16 µM, first compound 0.001 µM",0.14%
same,"viability, T/C","second compound 3.16 µM, first compound 0.00316 µM",2.13%
same,"viability, T/C","second compound 3.16 µM, first compound 0.01 µM",0.09%
same,"viability, T/C","second compound 3.16 µM, first compound 0.0316 µM",0.08%
same,"viability, T/C","second compound 3.16 µM, first compound 0.1 µM",1.74%
same,"viability, T/C","second compound 10 µM, first compound 0.000316 µM",0.12%
same,"viability, T/C","second compound 10 µM, first compound 0.001 µM",0.17%
same,"viability, T/C","second compound 10 µM, first compound 0.00316 µM",0.13%
same,"viability, T/C","second compound 10 µM, first compound 0.01 µM",0.13%
same,"viability, T/C","second compound 10 µM, first compound 0.0316 µM",1.65%
same,"viability, T/C","second compound 10 µM, first compound 0.1 µM",0.15%
CCN1CCN(Cc2ccc(Nc3ncc(F)c(-c4cc(F)c5nc(C)n(C(C)C)c5c4)n3)nc2)CC1,"viability, T/C",compound 0.00316 µM,104% and 92%
same,"viability, T/C",compound 0.01 µM,125% and 93.7%
same,"viability, T/C",compound 0.0316 µM,111% and 103%
same,"viability, T/C",compound 0.1 µM,139% and 121%
same,"viability, T/C",compound 0.316 µM,158% and 189%
same,"viability, T/C",compound 1 µM,59.4% and 69.7%
same,IC50,curve of compound,> 1000 nM
COc1c(OCCCN2CCOCC2)ccc2c3n(c(=NC(=O)c4cnc(N)nc4)nc12)CCN3,"viability, T/C",compound 0.00316 µM,101% and 89.7%
same,"viability, T/C",compound 0.01 µM,111% and 96.4%
same,"viability, T/C",compound 0.0316 µM,106% and 114%
same,"viability, T/C",compound 0.1 µM,57.7% and 74.8%
same,"viability, T/C",compound 0.316 µM,36.1% and 46%
same,"viability, T/C",compound 1 µM,29% and 39.8%
same,IC50,curve of compound,143 nM and 245 nM
